In paper PMC5047880, “Characterization of Linoleate 10-Hydratase of Lactobacillus plantarum and Novel Antifungal Metabolites” (Frontiers in Microbiology, 2016):

Key:
Assay in all cases: activity of apoenzyme after addition of FAD, LC-APPI-MS
Assay type in all cases: biochemical
Conditions in all cases: 0.2 mM FAD, 4°C, 24 h; linoleic acid as substrate, MES pH 6.1
[1] = target: T1, LAH of Lactobacillus reuteri (linoleate 10-hydratase, 10-LAH) (Limosilactobacillus reuteri, UniProt A0A1I9RYU8)
T1 construct: full length, 590 residues; His-tag from pET-28a(+) (NdeI/NotI); primers encode MYYSNGNY... and ...MEEQHLL
T1 sequence (A0A1I9RYU8 1-590): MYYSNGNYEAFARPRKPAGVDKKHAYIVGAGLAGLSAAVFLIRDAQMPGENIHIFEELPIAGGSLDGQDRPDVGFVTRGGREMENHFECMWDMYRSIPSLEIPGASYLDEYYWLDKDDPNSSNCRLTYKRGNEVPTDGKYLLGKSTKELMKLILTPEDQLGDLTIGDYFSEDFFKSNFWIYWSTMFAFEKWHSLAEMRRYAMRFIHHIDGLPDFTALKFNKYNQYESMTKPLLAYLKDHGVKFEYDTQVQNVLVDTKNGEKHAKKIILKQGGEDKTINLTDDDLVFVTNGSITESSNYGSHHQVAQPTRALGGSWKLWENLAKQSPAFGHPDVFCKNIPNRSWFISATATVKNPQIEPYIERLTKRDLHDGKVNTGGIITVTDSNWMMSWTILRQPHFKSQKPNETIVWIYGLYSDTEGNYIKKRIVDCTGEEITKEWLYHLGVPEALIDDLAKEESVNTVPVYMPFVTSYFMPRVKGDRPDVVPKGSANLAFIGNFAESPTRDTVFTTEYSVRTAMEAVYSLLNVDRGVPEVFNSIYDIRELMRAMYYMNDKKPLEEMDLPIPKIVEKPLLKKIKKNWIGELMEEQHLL

[2] = target: T2, LAH of Lactobacillus hammesii (linoleate 10-hydratase, 10-LAH) (Levilactobacillus hammesii, UniProt A0A1I9RYV0)
T2 construct: full length, 564 residues; His-tag from pET-28a(+) (BamHI/HindIII); primers encode MVKTKAVM... and ...ATKRMFS
T2 sequence (A0A1I9RYV0 1-564): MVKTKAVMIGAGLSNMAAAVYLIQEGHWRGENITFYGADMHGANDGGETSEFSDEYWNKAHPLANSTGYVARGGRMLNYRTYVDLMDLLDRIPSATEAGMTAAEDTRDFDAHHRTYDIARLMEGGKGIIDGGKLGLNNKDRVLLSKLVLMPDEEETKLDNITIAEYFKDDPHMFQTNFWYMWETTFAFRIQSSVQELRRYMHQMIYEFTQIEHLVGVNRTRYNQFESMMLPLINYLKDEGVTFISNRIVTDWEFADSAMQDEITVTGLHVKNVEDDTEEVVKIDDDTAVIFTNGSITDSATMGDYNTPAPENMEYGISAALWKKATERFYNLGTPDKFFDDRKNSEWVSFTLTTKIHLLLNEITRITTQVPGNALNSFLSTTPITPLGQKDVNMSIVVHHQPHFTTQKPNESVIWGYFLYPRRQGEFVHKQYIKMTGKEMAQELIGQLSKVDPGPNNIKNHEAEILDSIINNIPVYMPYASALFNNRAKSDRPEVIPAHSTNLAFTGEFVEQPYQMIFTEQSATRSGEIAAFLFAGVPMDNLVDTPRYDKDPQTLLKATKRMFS

[3] = target: T3, LAH of Lactobacillus spicheri (linoleate 10-hydratase, 10-LAH) (Levilactobacillus spicheri, UniProt A0A0F3RUK6)
T3 construct: gene lai; full length, 564 residues; His-tag from pET-28a(+) (EcoRI/NotI); primers encode MVKTKAVM... and ...ATKKMFS
T3 sequence (A0A0F3RUK6 1-564): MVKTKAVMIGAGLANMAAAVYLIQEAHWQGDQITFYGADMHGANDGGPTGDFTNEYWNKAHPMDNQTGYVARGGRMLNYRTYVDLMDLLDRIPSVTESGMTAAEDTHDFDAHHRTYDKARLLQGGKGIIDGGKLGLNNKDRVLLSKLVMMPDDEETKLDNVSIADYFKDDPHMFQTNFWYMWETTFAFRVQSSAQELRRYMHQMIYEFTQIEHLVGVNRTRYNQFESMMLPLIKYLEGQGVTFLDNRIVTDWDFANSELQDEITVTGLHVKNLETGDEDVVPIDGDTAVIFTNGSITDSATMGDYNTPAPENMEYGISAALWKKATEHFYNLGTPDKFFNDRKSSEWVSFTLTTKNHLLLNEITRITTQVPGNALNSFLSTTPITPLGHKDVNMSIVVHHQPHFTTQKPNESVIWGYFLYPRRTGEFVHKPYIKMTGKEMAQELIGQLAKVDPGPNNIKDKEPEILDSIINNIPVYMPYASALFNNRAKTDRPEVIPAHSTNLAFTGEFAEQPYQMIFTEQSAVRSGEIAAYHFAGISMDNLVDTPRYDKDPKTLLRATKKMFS

[4] = target: T4, LAH of Lactobacillus plantarum (linoleate 10-hydratase, 10-LAH) (Lactiplantibacillus plantarum, UniProt A0A1I9RYU9)
T4 construct: full length, 564 residues; His-tag from pET-28a(+) (EcoRI/NotI); primers encode MVKSKAIM... and ...ATKKMFD
T4 sequence (A0A1I9RYU9 1-564): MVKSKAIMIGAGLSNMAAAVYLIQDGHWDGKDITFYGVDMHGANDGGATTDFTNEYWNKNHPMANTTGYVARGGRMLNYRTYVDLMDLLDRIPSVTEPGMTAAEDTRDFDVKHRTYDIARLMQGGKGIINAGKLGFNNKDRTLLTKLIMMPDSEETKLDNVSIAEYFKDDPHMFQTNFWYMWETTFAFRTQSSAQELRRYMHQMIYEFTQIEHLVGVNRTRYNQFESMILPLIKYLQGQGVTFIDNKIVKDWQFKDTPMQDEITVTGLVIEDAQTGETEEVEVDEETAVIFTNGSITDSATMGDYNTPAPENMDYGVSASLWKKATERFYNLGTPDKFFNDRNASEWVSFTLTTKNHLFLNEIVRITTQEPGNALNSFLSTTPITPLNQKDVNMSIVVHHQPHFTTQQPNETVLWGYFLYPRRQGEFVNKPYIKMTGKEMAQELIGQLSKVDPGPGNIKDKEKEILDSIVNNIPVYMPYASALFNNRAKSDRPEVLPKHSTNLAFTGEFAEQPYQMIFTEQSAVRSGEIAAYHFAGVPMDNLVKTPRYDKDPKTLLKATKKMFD

SMILES: Cc1cc2nc3c(=O)[nH]c(=O)nc-3n(C[C@H](O)[C@H](O)[C@H](O)COP(=O)(O)OP(=O)(O)OC[C@H]3O[C@@H](n4cnc5c(N)ncnc54)[C@H](O)[C@@H]3O)c2cc1C [FAD]
- activity of apoenzyme after addition of FAD, LC-APPI-MS [1]: The addition of cofactor FAD to apoenzyme was essential for activity
- activity of apoenzyme after addition of FAD, LC-APPI-MS [2]: The addition of cofactor FAD to apoenzyme was essential for activity
- activity of apoenzyme after addition of FAD, LC-APPI-MS [3]: The addition of cofactor FAD to apoenzyme was essential for activity
- activity of apoenzyme after addition of FAD, LC-APPI-MS [4]: The addition of cofactor FAD to apoenzyme was essential for activity
